This is an account of results in article PMC5908784, “Extracellular loops 2 and 3 of the calcitonin receptor selectively modify agonist binding and efficacy” (Biochemical Pharmacology, 2018).

Substitutions are numbered along the chain they refer to. Where a SMILES comes first, the peptide text is derived from it. Bridges are numbered along the chain shown (N, C = ends).

What all share (test): Heterologous whole cell competition binding
What all share (conditions): heterologous competition of 125I-sCT(8-32), whole cells, mean ± S.E.M., SEM

For one assay, the target named is T1, hCTR P360A (Homo sapiens, UniProt P30988, P360A).
T1 construct: expressed in transfected cells
T1 sequence (P30988 25-474 P360A): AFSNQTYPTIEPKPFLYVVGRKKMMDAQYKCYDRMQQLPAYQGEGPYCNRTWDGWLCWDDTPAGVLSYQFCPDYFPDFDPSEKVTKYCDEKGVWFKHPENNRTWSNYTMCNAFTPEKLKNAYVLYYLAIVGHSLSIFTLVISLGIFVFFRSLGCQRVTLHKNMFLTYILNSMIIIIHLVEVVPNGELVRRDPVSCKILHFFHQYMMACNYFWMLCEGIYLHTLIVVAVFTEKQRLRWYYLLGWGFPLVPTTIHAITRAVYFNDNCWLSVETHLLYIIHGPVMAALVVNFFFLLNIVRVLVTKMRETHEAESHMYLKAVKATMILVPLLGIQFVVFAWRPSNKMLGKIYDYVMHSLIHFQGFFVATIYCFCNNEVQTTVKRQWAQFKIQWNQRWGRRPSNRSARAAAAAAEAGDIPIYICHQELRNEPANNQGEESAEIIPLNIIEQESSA
As for the experimental part: (§1) Following overnight incubation non-bound ligand was removed and radioactivity was determined using a gamma counter.
(§2) Data were corrected for radioligand occupancy using the Cheng-Prusoff equation in Prism; as such data are reported as pKi. Emax and EC50 were estimated from concentration-response curves using with a 3-parameter logistic equation in Prism (v7). These values are a composite of functional affinity, efficacy and stimulus response coupling. […] Significance was accepted at P < 0.05.

The target in a further assay is T2, hCTR H296A (Homo sapiens, UniProt P30988, H296A).
T2 construct: c-Myc (N); expressed in transfected cells
T2 sequence (P30988 25-474 H296A): T1 sequence (P30988 25-474 P360A) with H272A, A336P
As to the method:
as §1, §2

In the next assay the target is T3, hCTR N288A (Homo sapiens, UniProt P30988, N288A).
T3 construct: expressed in transfected cells
T3 sequence (P30988 25-474 N288A): T1 sequence (P30988 25-474 P360A) with N264A, A336P
As for the experimental part: as §1, §2

For a further assay, the target named is T4, hCTR WT (Homo sapiens, UniProt P30988).
T4 construct: expressed in transfected cells
T4 sequence (P30988 25-474): T1 sequence (P30988 25-474 P360A) with A336P
As to the method: as §1, §2

In a further assay the target is T5, hCTR N365A (Homo sapiens, UniProt P30988, N365A).
T5 construct: c-Myc (N); expressed in transfected cells
T5 sequence (P30988 25-474 N365A): T1 sequence (P30988 25-474 P360A) with A336P, N341A
As for the experimental part:
as §1, §2

In the case of `CSCC[C@H](NC(=O)CNC(=O)[C@H](CO)NC(=O)[C@H](Cc1ccccc1)NC(=O)[C@H](CCCNC(=N)N)NC(=O)[C@H](Cc1c[nH]cn1)NC(=O)[C@H](Cc1ccccc1)NC(=O)[C@H](CC(N)=O)NC(=O)[C@H](CC(N)=O)NC(=O)[C@H](CC(C)C)NC(=O)[C@H](CC(N)=O)NC(=O)[C@H](CCCNC(=N)N)NC(=O)[C@H](Cc1c[nH]c2ccccc12)NC(=O)[C@H](Cc1ccc(O)cc1)NC(=O)[C@H](C)NC(=O)[C@H](CO)NC(=O)[C@H](CC(C)C)NC(=O)[C@@H](NC(=O)[C@@H]1CSSC[C@H](N)C(=O)N[C@@H](CO)C(=O)N[C@@H](CC(N)=O)C(=O)N[C@@H](CC(C)C)C(=O)N[C@@H](CO)C(=O)N[C@@H]([C@@H](C)O)C(=O)N1)C(C)C)C(=O)NCC(=O)N[C@@H](Cc1ccccc1)C(=O)NCC(=O)N1CCC[C@H]1C(=O)N[C@@H](CCC(=O)O)C(=O)N[C@H](C(=O)N1CCC[C@H]1C(N)=O)[C@@H](C)O` [pCT] (H-CSNLSTCVLSAYWRNLNNFHRFSGMGFGPETP-NH2; disulfide 1-7), the Ki was 50.1 nM at hCTR P360A; 8.51 nM at hCTR H296A; 9.33 nM on hCTR N288A; 5.37 nM at hCTR WT; 2.09 nM on hCTR N365A.
